{"source": "patent US12349677B2", "about": "“Antimicrobial composition” (CONOPCO, INC., priority 2018, dated 2025)", "test_system": "E. coli ATCC 10536", "assay": "In-vitro antibacterial efficacy (bacteria remaining after 4 hours contact, plate count)", "format": "cell-based", "details": "contact time 4 hours at 37° C.", "procedure": "The following samples were tested for in-vitro antibacterial efficacy using the below mentioned protocol\nSodium phosphate buffer 10 mM for culture preparation pH 7.4\nThe test organism was subcultured from the glycerol stock (stored at −70° C.) onto a TSA slant and incubated at 37° C. for 18 to 24 hours. The slant was stored in a refrigerator for a maximum of two weeks after which a fresh slant was prepared.\nThe test organisms were streaked from TSA slants onto petri plates containing TSA and incubated at 37° C. for 21 to 22 hours before use.\nThe bacterial inoculums were prepared corresponding to 10^6 cells in 10 mM Sodium Phosphate Buffer from the above plate.\nThe OD of culture was adjusted to 0.8 for E. coli, to give 10^8 cells/ml. Once the bacterial inoculums corresponding to 10^8 cells is prepared in sodium phosphate buffer, it is serially diluted to 10^6 cells ([…] in 10 mM sodium phosphate buffer)\n135 μl bacterial inoculums (from 10^6 CFU/ml) was taken for all the treatments in a reaction volume of 300 μl (in a microtiter plate/96 well plate).\n15 μl of 100 mM buffer was taken for all controls and treatments so that the final conc. corresponds to ˜5 mM in all the reactions.\nThe respective compounds/actives to be tested were taken and made up to a volume of 300 μl with autoclaved distilled water.\nNote: Each treatment is kept in duplicates.\nThe microtiter plate was incubated at 37° C. for a contact time of 4 hours and then plated on TSA after required serial dilutions in neutralizer D/E to study bacterial kill.\nPlates were incubated overnight for E. coli\nThe colonies were counted to estimate the bacteria remaining and thereby the log kill.\nExperiments similar to the ones carried out for thymol+THPE were carried out with carvacrol+THPE. The antibacterial efficacy was measured in vitro as detailed above for examples 1 and A-C.\nExperiments similar to the ones carried out for thymol+THPE were carried out with eugenol+THPE. The antibacterial efficacy was measured in vitro as detailed above for examples 1 and A-C.", "key": {"[1]": {"details": "Table 5, eugenol/THPE series, culture control 6.23"}, "[2]": {"details": "Table 1, thymol/THPE series, culture control 6.36"}, "[3]": {"details": "Table 4, carvacrol/THPE series, culture control 6.41"}}, "data": [{"compound": "CC(O)CN(CCN(CC(C)O)CC(C)O)CC(C)O", "note": "(stereo not shown) [K, tetrahydroxypropyl ethylenediamine]", "values": [{"measurement": "Average of bacteria remaining", "setting": "[1]", "value": 5.44, "unit": "log cfu/ml"}]}, {"compound": "CC(O)CN(CCN(CC(C)O)CC(C)O)CC(C)O", "note": "(stereo not shown) [B, tetrahydroxypropyl ethylenediamine]", "values": [{"measurement": "Average of bacteria remaining", "setting": "[2]", "value": 5.98, "unit": "log cfu/ml"}]}, {"compound": "Cc1ccc(C(C)C)cc1O", "note": "[F, carvacrol]", "values": [{"measurement": "Average of bacteria remaining", "setting": "[3]", "value": 6.12, "unit": "log cfu/ml"}]}, {"compound": "Cc1ccc(C(C)C)c(O)c1", "note": "[C, thymol]", "values": [{"measurement": "Average of bacteria remaining", "setting": "[2]", "value": 6.26, "unit": "log cfu/ml"}]}, {"compound": "CC(O)CN(CCN(CC(C)O)CC(C)O)CC(C)O", "note": "(stereo not shown) [G, tetrahydroxypropyl ethylenediamine]", "values": [{"measurement": "Average of bacteria remaining", "setting": "[3]", "value": 5.97, "unit": "log cfu/ml"}]}, {"compound": "C=CCc1ccc(O)c(OC)c1", "note": "[J, Eugenol]", "values": [{"measurement": "Average of bacteria remaining", "setting": "[1]", "value": 6.15, "unit": "log cfu/ml"}]}, {"compound": "CC(O)CN(CCN(CC(C)O)CC(C)O)CC(C)O", "note": "(stereo not shown) [H, tetrahydroxypropyl ethylenediamine]", "values": [{"measurement": "Average of bacteria remaining", "setting": "[3]", "value": 5.45, "unit": "log cfu/ml"}]}]}
